Legend:
[1] = target: Monoamine transporters; serotonin & dopamine (Rattus norvegicus) (UniProt P31652+P23977); assay: Selectivity for SERT over DAT; assay type: protein assay
[2] = target: Monoamine transporters; Norepinephrine & serotonin (Rattus norvegicus) (UniProt P31652+Q9WTR4); assay: Selectivity for SERT over NET; assay type: protein assay
[3] = target: Norepinephrine transporter (Rattus norvegicus, UniProt Q9WTR4); assay: Displacement of [3H]nisoxetine from NET in rat cerebral cortex; assay type: tissue-based
[4] = target: Sodium-dependent dopamine transporter (Rattus norvegicus, UniProt P23977); assay: Displacement of [3H]beta-CIT from DAT in rat caudate homogenate
[5] = target: Sodium-dependent serotonin transporter (Rattus norvegicus, UniProt P31652); assay: Displacement of [3H]cyanoimipramine from SERT in rat cerebral cortex homogenate; assay type: tissue-based
Chain of Sodium-dependent serotonin transporter (P31652 whole entry): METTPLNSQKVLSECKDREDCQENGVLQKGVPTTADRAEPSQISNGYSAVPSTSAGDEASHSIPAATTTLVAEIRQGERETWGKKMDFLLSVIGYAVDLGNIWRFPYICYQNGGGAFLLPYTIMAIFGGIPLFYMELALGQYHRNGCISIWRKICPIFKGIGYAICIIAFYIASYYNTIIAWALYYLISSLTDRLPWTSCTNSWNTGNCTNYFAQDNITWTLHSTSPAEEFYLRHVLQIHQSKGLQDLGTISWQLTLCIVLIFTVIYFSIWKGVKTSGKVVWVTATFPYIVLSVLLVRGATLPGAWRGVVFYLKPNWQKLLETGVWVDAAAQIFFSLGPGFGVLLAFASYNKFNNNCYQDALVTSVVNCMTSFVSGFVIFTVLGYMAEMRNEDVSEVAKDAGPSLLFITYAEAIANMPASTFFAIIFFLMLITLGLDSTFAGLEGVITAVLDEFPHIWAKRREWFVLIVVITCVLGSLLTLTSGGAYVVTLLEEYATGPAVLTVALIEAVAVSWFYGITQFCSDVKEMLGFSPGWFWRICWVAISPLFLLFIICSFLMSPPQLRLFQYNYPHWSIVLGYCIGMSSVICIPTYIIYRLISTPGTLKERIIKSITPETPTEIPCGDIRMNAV

Chain of Norepinephrine transporter (Q9WTR4 whole entry): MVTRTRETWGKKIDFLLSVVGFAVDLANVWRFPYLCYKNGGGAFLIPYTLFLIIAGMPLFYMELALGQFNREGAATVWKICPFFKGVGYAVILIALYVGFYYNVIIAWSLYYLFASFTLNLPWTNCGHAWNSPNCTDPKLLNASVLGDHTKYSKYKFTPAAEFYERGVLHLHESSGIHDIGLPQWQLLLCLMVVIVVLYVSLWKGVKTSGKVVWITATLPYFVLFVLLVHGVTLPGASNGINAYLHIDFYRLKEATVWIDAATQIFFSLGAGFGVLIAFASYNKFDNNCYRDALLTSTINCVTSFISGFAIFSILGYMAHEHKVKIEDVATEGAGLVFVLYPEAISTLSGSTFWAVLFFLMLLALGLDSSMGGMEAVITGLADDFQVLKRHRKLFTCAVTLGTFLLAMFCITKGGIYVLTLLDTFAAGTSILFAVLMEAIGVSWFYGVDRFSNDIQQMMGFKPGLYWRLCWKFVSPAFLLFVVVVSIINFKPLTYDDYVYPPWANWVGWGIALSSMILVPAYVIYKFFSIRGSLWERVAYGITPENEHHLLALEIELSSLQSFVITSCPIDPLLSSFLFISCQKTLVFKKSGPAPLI
Chain of Sodium-dependent dopamine transporter (P23977 whole entry): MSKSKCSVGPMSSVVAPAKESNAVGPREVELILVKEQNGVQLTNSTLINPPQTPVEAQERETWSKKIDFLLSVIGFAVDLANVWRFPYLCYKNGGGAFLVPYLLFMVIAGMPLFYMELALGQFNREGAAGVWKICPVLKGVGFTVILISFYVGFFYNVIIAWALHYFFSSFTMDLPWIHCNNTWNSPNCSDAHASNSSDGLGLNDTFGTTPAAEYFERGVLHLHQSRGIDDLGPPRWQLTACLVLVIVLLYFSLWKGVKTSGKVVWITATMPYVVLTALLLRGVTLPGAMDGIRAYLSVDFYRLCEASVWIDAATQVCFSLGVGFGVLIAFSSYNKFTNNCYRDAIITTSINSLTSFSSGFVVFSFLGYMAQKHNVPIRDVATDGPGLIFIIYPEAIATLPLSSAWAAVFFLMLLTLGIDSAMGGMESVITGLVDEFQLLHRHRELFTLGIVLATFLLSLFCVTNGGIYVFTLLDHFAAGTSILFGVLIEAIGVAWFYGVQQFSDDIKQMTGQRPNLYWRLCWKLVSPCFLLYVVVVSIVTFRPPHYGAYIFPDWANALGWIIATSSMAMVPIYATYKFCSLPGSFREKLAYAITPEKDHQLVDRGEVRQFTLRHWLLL
Chain of Monoamine transporters; serotonin & dopamine (Rattus norvegicus) (P23977 whole entry, looked up): as the sequence (P23977 whole entry) above
Chain of Monoamine transporters; serotonin & dopamine (Rattus norvegicus) (P31652 whole entry, looked up): as the sequence (P31652 whole entry) above

Row | SMILES | Ratio Ki [1] | Ratio Ki [2] | Ki [3] | Ki [4] | Ki [5]
1 | COC(=O)[C@@H]1CN(C)CC[C@@H]1c1ccc(C=O)cc1 | 5.8 | 17.3 | > 30000 nM | > 10000 nM | 1730 nM
2 | COC(=O)[C@@H]1CN(C)CC[C@@H]1c1ccc(-c2ccco2)cc1 | 11.1 | > 2700 | > 50000 nM | 205 nM | 18.5 nM
3 | COC(=O)[C@@H]1CN(C)CC[C@@H]1c1ccc(-c2cccs2)cc1 | > 55 | > 551 | > 50000 nM | ≥ 5000 nM | 90.8 nM
4 | COC(=O)[C@@H]1CN(C)CC[C@@H]1c1ccc(-c2nccs2)cc1 [listing 1 of 2 here] |  |  | > 50000 nM |  | > 10000 nM
5 | COC(=O)[C@@H]1CN(C)CC[C@@H]1c1ccc(-c2nccs2)cc1 (racemic) [listing 1 of 2 here] | 2 | 4 |  |  | 
6 | COC(=O)[C@@H]1CN(C)CC[C@@H]1c1ccc(-c2nccs2)cc1 [listing 2 of 2 here] | 1 | 5 |  |  | 
7 | COC(=O)[C@@H]1CN(C)CC[C@@H]1c1ccc(I)cc1 | 11.2 | 59.9 |  | 195 nM | 167 nM
8 | COC(=O)[C@@H]1CN(C)CC[C@@H]1c1ccc(/C=C\I)cc1 | 15.6 | > 3800 | > 30000 nM | 123 nM | 7.9 nM
9 | COC(=O)[C@@H]1CN(C)CC[C@@H]1c1ccc(-c2nccs2)cc1 (racemic) [listing 2 of 2 here] |  |  | > 20000 nM | > 10000 nM | > 5000 nM
10 | COC(=O)[C@@H]1CN(C)CC[C@@H]1c1ccc(-c2ccsc2)cc1 | 188 | > 3140 | > 10000 nM | 598 nM | 31.8 nM
11 | COC(=O)[C@H]1[C@@H](c2ccc(I)cc2)C[C@@H]2CC[C@H]1N2C | 2.1 | 6.1 | 2.8 nM | 0.96 nM | 

— ChEMBL document CHEMBL1146896, “Synthesis and monoamine transporter affinity of 2beta-carbomethoxy-3beta-(4'-p-substituted phenyl)-piperidine analogs of cocaine” (Bioorg Med Chem Lett, 2006)
